The values that follow come from patent US20250179103A1, “6-OXODECAHYDROPYRROLO[1,2-A][1,5]DIAZOCINE AND 6-OXODECAHYDRO-4H-PYRROLO[2,1-D][1,5]THIAZOCINE DERIVATIVES AS STAT3 AND STAT6 MODULATORS FOR THE TREATMENT OF CANCER AND INFLAMMATORY CONDITIONS” (Recludix Pharma, Inc., priority 2022, published 2025).

Test [1] deals with T1, Recombinant STAT6 protein (STAT6(W123-T658)) (Homo sapiens, UniProt P42226).
T1 construct: Recombinant STAT6 protein (STAT6(W123-T658))
T1 sequence (P42226 123-658): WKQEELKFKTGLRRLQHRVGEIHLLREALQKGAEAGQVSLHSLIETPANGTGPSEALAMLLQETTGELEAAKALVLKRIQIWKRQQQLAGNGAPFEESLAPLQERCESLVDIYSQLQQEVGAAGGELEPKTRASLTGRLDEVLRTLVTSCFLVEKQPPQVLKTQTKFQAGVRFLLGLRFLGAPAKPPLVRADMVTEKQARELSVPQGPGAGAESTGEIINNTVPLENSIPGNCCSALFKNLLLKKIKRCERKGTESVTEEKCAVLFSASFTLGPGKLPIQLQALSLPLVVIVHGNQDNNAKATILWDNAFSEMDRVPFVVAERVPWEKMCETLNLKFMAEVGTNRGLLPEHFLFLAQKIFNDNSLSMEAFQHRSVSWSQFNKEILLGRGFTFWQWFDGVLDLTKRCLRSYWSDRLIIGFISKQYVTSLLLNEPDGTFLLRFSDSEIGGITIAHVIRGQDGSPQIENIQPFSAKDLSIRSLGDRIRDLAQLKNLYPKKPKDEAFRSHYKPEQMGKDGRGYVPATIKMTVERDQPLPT
The experiment in a line: STAT6 Fluorescence Polarization (FP) Assay. The format is binding. To be noted: STAT6(W123-T658) 250 nM, probe 5-FAM-ApYKPFQDLI-NH2 2 nM, 45-minute incubation. The procedure, abridged: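 Displacement of a fluorescent phosphotyrosine peptide (5-FAM-ApYKPFQDLI-NH2, 2 nM) from STAT6(W123-T658) (250 nM), 1% DMSO, pH 7.4 HEPES buffer. After 45 min at room temperature, polarization (mP) was plotted versus log compound concentration and fitted by nonlinear regression to give IC50.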

Test [2] has as its target T2, Recombinant STAT3 protein (STAT3(G127-I722)) (Homo sapiens, UniProt P40763).
T2 construct: Recombinant STAT3 protein (STAT3(G127-I722))
As to the kind of experiment: STAT3 Fluorescence Polarization (FP) Assay. The format is binding. As to conditions: STAT3(G127-I722) 25 nM, probe 5-FAM-GpYLPQTV-NH2 2 nM, 45-minute incubation. In outline:
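Fluorescence polarization after a 45-min room-temperature incubation measured compound displacement of a 2 nM fluorescein-labelled phosphotyrosine peptide (5-FAM-GpYLPQTV-NH2) from 25 nM recombinant STAT3(G127-I722). Buffer was 10 mM HEPES pH 7.4 with 1% DMSO final. IC50s were fitted by nonlinear regression of mP against log concentration.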
A general note: Fluorescence polarisation rises when a labelled molecule tumbles more slowly, as on binding a larger partner.

As a reminder, the IC50 is the point on the concentration scale where inhibition reaches its midpoint.

T2 sequence (P40763 127-722): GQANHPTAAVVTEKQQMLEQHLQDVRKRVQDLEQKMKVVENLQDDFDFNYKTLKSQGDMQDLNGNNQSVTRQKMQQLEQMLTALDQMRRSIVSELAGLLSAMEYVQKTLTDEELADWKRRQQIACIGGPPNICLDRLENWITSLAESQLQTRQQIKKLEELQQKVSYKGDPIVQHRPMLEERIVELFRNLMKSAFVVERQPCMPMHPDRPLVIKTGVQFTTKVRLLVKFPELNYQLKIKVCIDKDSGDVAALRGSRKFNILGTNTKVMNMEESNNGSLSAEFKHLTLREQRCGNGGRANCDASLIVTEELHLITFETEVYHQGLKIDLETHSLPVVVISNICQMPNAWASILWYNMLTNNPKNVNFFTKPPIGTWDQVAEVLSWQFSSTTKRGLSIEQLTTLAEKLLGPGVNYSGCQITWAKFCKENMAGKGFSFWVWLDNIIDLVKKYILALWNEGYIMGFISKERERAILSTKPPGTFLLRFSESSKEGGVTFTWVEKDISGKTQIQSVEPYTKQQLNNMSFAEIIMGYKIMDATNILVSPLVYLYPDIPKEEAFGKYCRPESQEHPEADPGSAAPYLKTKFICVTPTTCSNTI

Consider `CC(=O)N1CC[C@H]2CC[C@@H](C(=O)N(C)c3ccccc3)N2C(=O)[C@@H](NC(=O)c2cc3cc(C(C)(C)P(=O)(O)O)ccc3s2)C1` [Compound 21, (2-(2-(((5S,8S,10aR)-3-acetyl-8-(methyl(phenyl)carbamoyl)-6-oxodecahydropyrrolo[1,2-a][1,5]diazocin-5-yl)carbamoyl)benzo[b]thiophen-5-yl)propan-2-yl)phospnoic aicd], for which the IC50 in test [1] is more than 30 µM; in test [2] it was more than 10 µM.
For the molecule `CC(=O)N1CC[C@H]2CC[C@@H](C(=O)N(C)c3ccccc3)N2C(=O)[C@@H](NC(=O)c2cc3cc(C(F)P(=O)(O)O)ccc3s2)C1` (stereo partly drawn) [Compound 22, ((2-(((5S,8S,10aR)-3-acetyl-8-(methyl(phenyl)carbamoyl)-6-oxodecahydropyrrolo[1,2-a][1,5]diazocin-5-yl)carbamoyl)benzo[b]thiophen-5-yl)fluoromethyl)phosphonic acid], the IC50 is 0.3 to 3 µM in test [1] and more than 10 µM in test [2].
Take `CCC(=O)N(C)[C@@H]1CCN(C(=O)[C@@H]2CC[C@@H]3CCN(C(C)=O)C[C@H](NC(=O)c4cc5cc(C(F)(F)P(=O)(O)O)ccc5[nH]4)C(=O)N32)C1` [Compound 23, ((2-(((5S,8S,10aR)-3-acetyl-8-((R)-3-(N-methylpropionamido)pyrrolidine-1-carbonyl)-6-oxodecahydropyrrolo[1,2-a][1,5]diazocin-5-yl)carbamoyl)-1H-indol-5-yl)difluoromethyl)phosphonic acid]: the IC50 in test [1] lay in the range of 0.3 to 3 µM; in test [2], 1 to 10 µM.
Consider `CC(=O)N1CC(NC(=O)[C@@H]2CC[C@@H]3CCN(C(C)=O)C[C@H](NC(=O)c4cc5cc(C(F)(F)P(=O)(O)O)ccc5[nH]4)C(=O)N32)C1` [Compound 24, ((2-(((5S,8S,10aR)-3-acetyl-8-((1-acetylazetidin-3-yl)carbamoyl)-6-oxodecahydropyrrolo[1,2-a][1,5]diazocin-5-yl)carbamoyl)-1H-indol-5-yl)difluoromethyl)phosphonic acid], for which the IC50 in test [1] lay in the range of 0.3 to 3 µM; in test [2] it was 0.1 to 1 µM.
For the molecule `CCC(=O)NCCCN(C)C(=O)[C@@H]1CC[C@@H]2CCN(C(C)=O)C[C@H](NC(=O)/C=C(\C)c3ccc(C(F)(F)P(=O)(O)O)cc3)C(=O)N21` [Compound 25, ((4-((E)-4-(((5S,8S,10aR)-3-acetyl-8-(methyl(3-propionamidopropyl)carbamoyl)-6-oxodecahydropyrrolo[1,2-a][1,5]diazocin-5-yl)amino)-4-oxobut-2-en-2-yl)phenyl)difluoromethyl)phosphonic acid], the IC50 in test [1] was 3 to 30 µM; in test [2], more than 10 µM.
As for `CCC(=O)NCCCN(C)C(=O)[C@@H]1CC[C@@H]2CCN(C(C)=O)C[C@H](NC(=O)/C=C/c3ccc(C(F)(F)P(=O)(O)O)cc3)C(=O)N21` [Compound 26, ((4-((E)-3-(((5S,8S,10aR)-3-acetyl-8-(methyl(3-propionamidopropyl)carbamoyl)-6-oxodecahydropyrrolo[1,2-a][1,5]diazocin-5-yl)amino)-3-oxoprop-1-en-1-yl)phenyl)difluoromethyl)phosphonic acid], the 50% inhibitory concentration (IC50) in test [1] is more than 30 µM; in test [2] it was more than 10 µM.
Consider `CCC(=O)NCCCN(C)C(=O)[C@@H]1CC[C@@H]2CCN(C(C)=O)C[C@H](NC(=O)c3cc4cc(C(=O)P(=O)(O)O)ccc4[nH]3)C(=O)N21` [Compound 27, (2-(((5S,8S,10aR)-3-acetyl-8-(methyl(3-propionamidopropyl)carbamoyl)-6-oxodecahydropyrrolo[1,2-a][1,5]diazocin-5-yl)carbamoyl)-1H-indole-5-carbonyl)phosphonic acid], for which the concentration for half-maximal inhibition (IC50) in test [1] lay in the range of 3 to 30 µM; in test [2], 1 to 10 µM.
The corresponding values for `CCC(=O)NCCCN(C)C(=O)[C@@H]1CC[C@@H]2CCN(C(C)=O)C[C@H](NC(=O)c3cc4cc(C(F)(F)P(=O)(O)O)ccc4[nH]3)C(=O)N21` [Compound 28, ((2-(((5S,8S,10aR)-3-acetyl-8-(methyl(3-propionamidopropyl)carbamoyl)-6-oxodecahydropyrrolo[1,2-a][1,5]diazocin-5-yl)carbamoyl)-1H-indol-5-yl)difluoromethyl)phosphonic acid] are 0.3 to 3 µM and 1 to 10 µM.
Regarding `CC(=O)N1CC[C@H]2CC[C@@H](C(=O)N(C)C)N2C(=O)[C@@H](NC(=O)c2cc3cc(C(F)(F)P(=O)(O)O)ccc3[nH]2)C1` [Compound 29, ((2-(((5S,8S,10aR)-3-acetyl-8-(dimethylcarbamoyl)-6-oxodecahydropyrrolo[1,2-a][1,5]diazocin-5-yl)carbamoyl)-1H-indole-5-yl)difluoromethyl)phosphonic acid], the half-maximal inhibitory concentration (IC50) in test [1] was 0.3 to 3 µM; in test [2], 1 to 10 µM.
The corresponding values for `CC(=O)N1CC[C@H]2CC[C@@H](C(=O)N(C)c3ccccc3)N2C(=O)[C@@H](NC(=O)c2cc3cc(C(F)(F)P(=O)(O)O)ccc3[nH]2)C1` [Compound 30] are 0.3 to 3 µM and 1 to 10 µM.
As for `CC(=O)N1CC[C@H]2CC[C@@H](C(=O)N[C@H]3CCC[C@H]3N)N2C(=O)[C@@H](NC(=O)c2cc3cc(C(F)(F)P(=O)(O)O)ccc3[nH]2)C1` [Compound 31, ((2-(((5S,8S,10aR)-3-acetyl-8-(((1S,2R)-2-aminocyclopentyl)carbamoyl)-6-oxodecahydropyrrolo[1,2-a][1,5]diazocin-5-yl)carbamoyl)-1H-indol-5-yl)difluoromethyl)phosphonic acid], the half-maximal inhibitory concentration (IC50) in test [1] was 0.3 to 3 µM; in test [2], 1 to 10 µM.
`CC(=O)N[C@H]1CCC[C@@H]1NC(=O)[C@@H]1CC[C@@H]2CCN(C(C)=O)C[C@H](NC(=O)c3cc4cc(C(F)(F)P(=O)(O)O)ccc4[nH]3)C(=O)N21` [Compound 32, ((2-(((5S,8S,10aR)-8-(((1S,2S)-2-acetamidocyclopentyl)carbamoyl)-3-acetyl-6-oxodecahydropyrrolo[1,2-a][1,5]diazocin-5-yl)carbamoyl)-1H-indol-5-yl)difluoromethyl)phosphonic acid]: the IC50 was in the range of 3 to 30 µM in test [1] and 1 to 10 µM in test [2].
In the case of `CCN(C)CCCN(C)C(=O)[C@@H]1CC[C@@H]2CCN(C(C)=O)C[C@H](NC(=O)c3cc4cc(C(F)(F)P(=O)(O)O)ccc4[nH]3)C(=O)N21` [Compound 33, ((2-(((5S,8S,10aR)-3-acetyl-8-((3-(ethyl(methyl)amino)propyl)(methyl)carbamoyl)-6-oxodecahydropyrrolo[1,2-a][1,5]diazocin-5-yl)carbamoyl)-1H-indol-5-yl)difluoromethyl)phosphonic acid], the 50% inhibitory concentration (IC50) in test [1] is 3 to 30 µM; in test [2] it was 1 to 10 µM.
In the case of `CCC(=O)N1CC[C@@H](NC(=O)[C@@H]2CC[C@@H]3CCN(C(C)=O)C[C@H](NC(=O)c4cc5cc(C(F)(F)P(=O)(O)O)ccc5[nH]4)C(=O)N32)C1` [Compound 34, ((2-(((5S,8S,10aR)-3-aceytl-6-oxo-8-(((R)-1-propionylpyrrolidin-3-yl)carbamoyl)decahydropyrrolo[1,2-a][1,5]diazocin-5-yl)carbamoyl)-1H-indol-5-yl)difluoromethyl)phosphonic acid], the IC50 in test [1] lay in the range of 0.3 to 3 µM; in test [2], 0.1 to 1 µM.
As for `CC(=O)N1CC[C@H]2CC[C@@H](C(=O)N3CCN(C(=O)OCc4ccccc4)CC3)N2C(=O)[C@@H](NC(=O)c2cc3cc(C(F)(F)P(=O)(O)O)ccc3[nH]2)C1` [Compound 35, ((2-(((5S,8S,10aR)-3-acetyl-8-(4-((benzyloxy)carbonyl)piperazine-1-carbonyl)-6-oxodecahydropyrrolo[1,2-a][1,5]diazocin-5-yl)carbamoyl)-1H-indol-5-yl)difluoromethyl)phosphonic acid], the half-inhibitory concentration (IC50) in test [1] fell in the range of 0.3 to 3 µM; in test [2] it was 1 to 10 µM.
Take `CNC(=O)[C@@H]1CC[C@@H]2CCN(C(C)=O)C[C@H](NC(=O)c3cc4cc(C(F)(F)P(=O)(O)O)ccc4[nH]3)C(=O)N21` [Compound 36, ((2-(((5S,8S,10aR)-3-acetyl-8-(methylcarbamoyl)-6-oxodecahydropyrrolo[1,2-a][1,5]diazocin-5-yl)carbamoyl)-1H-indol-5-yl)difluoromethyl)phosphonic acid]: the IC50 in test [1] fell in the range of 0.3 to 3 µM; in test [2], 1 to 10 µM.
As to `CC(=O)N1CC[C@H]2CC[C@@H](C(=O)N3CC(c4cc[nH]c(=O)c4)CC34CC4)N2C(=O)[C@@H](NC(=O)c2ccc3ccc(C(F)(F)P(=O)(O)O)cc3c2)C1` (stereo partly drawn) [Compound 37, ((7-(((5S,8S,10aR)-3-acetyl-6-oxo-8-(6-(2-oxo-1,2-dihydropyridin-4-yl)-4-azaspiro[2.4]heptane-4-carbonyl)decahydropyrrolo[1,2-a][1,5]diazocin-5-yl)carbamoyl)naphthalen-2-yl)difluoromethyl)phosphonic acid], the values for the 50% inhibitory concentration (IC50) in test [1] and in test [2] were not above 0.3 µM and more than 10 µM, respectively.
